Converted amounts (≈) assume the structure as drawn. Like-named read-outs stand apart in the source and are kept apart here.
What was measured:
MRSA = assay: MIC, in vitro susceptibility testing (CLSI); type: cell-based, Staphylococcus aureus; settings: Staphylococcus aureus, MRSA; for MIC: read-out: MIC
VRSA = assay: MIC, in vitro susceptibility testing (CLSI); type: cell-based, Staphylococcus aureus; settings: for MIC: Staphylococcus aureus, VRSA

With `CNc1cc(F)cc2c1[nH]c1nc(Oc3cnc(C)nc3)nc(N3CCC4(CC3)CO[C@@H](CO)C4)c12` [JSF-2414] the MIC (MRSA; strain 2 78 62) was 0.031 µg/mL (≈ 0.0628 µM), the MIC (MRSA; strain 2 78 66) was 0.031 µg/mL (≈ 0.0628 µM) and the MIC (MRSA; strain 2 78 96) was 0.031 µg/mL (≈ 0.0628 µM). The MIC (MRSA; strain 2 79 17) was 0.062 µg/mL (≈ 0.126 µM), the MIC (MRSA; strain 2 79 22) was 0.031 µg/mL (≈ 0.0628 µM) and the MIC (MRSA; strain 2 79 25) was 0.031 µg/mL (≈ 0.0628 µM). It also gave an MIC (MRSA; strain 2 79 29) of 0.016 µg/mL (≈ 0.0324 µM), an MIC (MRSA; strain 2 79 33) of 0.031 µg/mL (≈ 0.0628 µM) and an MIC (MRSA; strain 2 79 65) of 0.062 µg/mL (≈ 0.126 µM). It also gave an MIC (MRSA; strain 2 79 67 (first listing)) of 0.031 µg/mL (≈ 0.0628 µM), an MIC (MRSA; strain 2 79 67 (second listing)) of 0.031 µg/mL (≈ 0.0628 µM) and an MIC (MRSA; strain 2 80 36) of 0.062 µg/mL (≈ 0.126 µM). For the same compound, the MIC (MRSA; strain 2 80 46) was 0.031 µg/mL (≈ 0.0628 µM), the MIC (MRSA; strain 2 80 48) was 0.031 µg/mL (≈ 0.0628 µM) and the MIC (MRSA; strain 2 80 62) was 0.031 µg/mL (≈ 0.0628 µM). The MIC (MRSA; strain 2 80 67) was 0.062 µg/mL (≈ 0.126 µM), the MIC (MRSA; strain 2 81 54) was 0.031 µg/mL (≈ 0.0628 µM) and the MIC (MRSA; strain 2 85 12) was 0.016 µg/mL (≈ 0.0324 µM). The MIC (MRSA; strain 2 85 13) was 0.008 µg/mL (≈ 0.0162 µM), the MIC (MRSA; strain 2 85 14) was 0.031 µg/mL (≈ 0.0628 µM) and the MIC (MRSA; strain 2 85 32) was 0.062 µg/mL (≈ 0.126 µM). The MIC (MRSA; strain 2 87 54) was 0.031 µg/mL (≈ 0.0628 µM), the MIC (MRSA; strain 2 87 55) was 0.031 µg/mL (≈ 0.0628 µM) and the MIC (MRSA; strain 2 87 77) was 0.016 µg/mL (≈ 0.0324 µM). It also gave an MIC (MRSA; strain 2 88 47) of 0.016 µg/mL (≈ 0.0324 µM), an MIC (MRSA; strain 2 88 71) of 0.016 µg/mL (≈ 0.0324 µM) and an MIC (MRSA; strain 2 88 83) of 0.008 µg/mL (≈ 0.0162 µM). For the same compound, the MIC (MRSA; strain 2 88 84) was 0.004 µg/mL (≈ 0.0081 µM), the MIC (MRSA; strain 2 89 13) was 0.016 µg/mL (≈ 0.0324 µM) and the MIC (MRSA; strain 2 89 17) was 0.008 µg/mL (≈ 0.0162 µM). It also gave an MIC (MRSA; strain 2 90 62) of 0.016 µg/mL (≈ 0.0324 µM), an MIC (MRSA; strain 2 90 86) of 0.016 µg/mL (≈ 0.0324 µM) and an MIC (MRSA; strain 2 90 98) of 0.031 µg/mL (≈ 0.0628 µM). It also gave an MIC (MRSA; strain 2 91 55) of 0.031 µg/mL (≈ 0.0628 µM), an MIC (MRSA; strain 2 91 79) of 0.016 µg/mL (≈ 0.0324 µM) and an MIC (MRSA; strain 2 91 84) of 0.031 µg/mL (≈ 0.0628 µM). It also gave an MIC (MRSA; strain 2 93 06) of 0.062 µg/mL (≈ 0.126 µM), an MIC (MRSA; strain 2 93 24) of 0.031 µg/mL (≈ 0.0628 µM) and an MIC (MRSA; strain 2 93 30) of 0.031 µg/mL (≈ 0.0628 µM). The MIC (MRSA; strain 2 95 78) was 0.031 µg/mL (≈ 0.0628 µM), the MIC (MRSA; strain 2 96 95) was 0.031 µg/mL (≈ 0.0628 µM) and the MIC (MRSA; strain 2 97 09) was 0.016 µg/mL (≈ 0.0324 µM). The MIC (MRSA; strain 3 03 39) was 0.016 µg/mL (≈ 0.0324 µM), the MIC (MRSA; strain 3 65 31) was 0.016 µg/mL (≈ 0.0324 µM) and the MIC (MRSA; strain 3 65 39) was 0.016 µg/mL (≈ 0.0324 µM). The MIC (MRSA; strain 3 80 43) was 0.002 µg/mL (≈ 0.00405 µM), the MIC (MRSA; strain 3 80 68) was 0.008 µg/mL (≈ 0.0162 µM) and the MIC (MRSA; strain USA400Padm) was 0.062 µg/mL (≈ 0.126 µM). For the same compound, the MIC50 (MRSA; 101 strains) was 0.031 µg/mL (≈ 0.0628 µM), the MIC90 (MRSA; 101 strains) was 0.062 µg/mL (≈ 0.126 µM) and the MIC range (VRSA; N = 7 (Van: 9)) was 0.0156 to 0.031 µg/mL. For the same compound, the MIC (VRSA; strain 2 25 23) was 0.016 µg/mL (≈ 0.0324 µM), the MIC (VRSA; strain 2 25 24) was 0.016 to 0.031 µg/mL (≈ 0.0324 to 0.0628 µM) and the MIC (VRSA; strain 2 25 25) was 0.016 to 0.031 µg/mL (≈ 0.0324 to 0.0628 µM). For the same compound, the MIC (VRSA; strain 2 25 26) was 0.0156 to 0.031 µg/mL (≈ 0.0316 to 0.0628 µM), the MIC (VRSA; strain 2 25 27) was 0.031 µg/mL (≈ 0.0628 µM) and the MIC (VRSA; strain 2 25 28) was 0.0156 to 0.031 µg/mL (≈ 0.0316 to 0.0628 µM). For the same compound, the MIC (VRSA; strain VRS2 (VRS-2)) was 0.031 µg/mL (≈ 0.0628 µM).

From paper PMC9487510, “A Novel Oral GyrB/ParE Dual Binding Inhibitor Effective against Multidrug-Resistant Neisseria gonorrhoeae and Other High-Threat Pathogens” (Antimicrobial Agents and Chemotherapy, 2022)
